EC50 and Emax data for 25 molecules are collected here from patent US8389552B2, “(S)-6-(2-(4-(cyclobutylsulfonyl)-1H-imidazol-1-yl)-3-cyclopentylpropanamido)nicotinic acid useful as a glucokinase activator” (Pfizer Inc., priority 2009, dated 2013).

What is called pEC50 is −log10 of the EC50, conventionally taken in molar units.

pEC50: −log10 of the molar value.

The target in this assay is T1, Full-length glucokinase (beta cell isoform) (Homo sapiens, UniProt P35557).
T1 construct: Full-length glucokinase (beta cell isoform) was His-tagged at N-terminus; His tag (N); made in house; host or cells: E. coli BL21(DE3), pBCGK vector
T1 sequence (P35557 1-465): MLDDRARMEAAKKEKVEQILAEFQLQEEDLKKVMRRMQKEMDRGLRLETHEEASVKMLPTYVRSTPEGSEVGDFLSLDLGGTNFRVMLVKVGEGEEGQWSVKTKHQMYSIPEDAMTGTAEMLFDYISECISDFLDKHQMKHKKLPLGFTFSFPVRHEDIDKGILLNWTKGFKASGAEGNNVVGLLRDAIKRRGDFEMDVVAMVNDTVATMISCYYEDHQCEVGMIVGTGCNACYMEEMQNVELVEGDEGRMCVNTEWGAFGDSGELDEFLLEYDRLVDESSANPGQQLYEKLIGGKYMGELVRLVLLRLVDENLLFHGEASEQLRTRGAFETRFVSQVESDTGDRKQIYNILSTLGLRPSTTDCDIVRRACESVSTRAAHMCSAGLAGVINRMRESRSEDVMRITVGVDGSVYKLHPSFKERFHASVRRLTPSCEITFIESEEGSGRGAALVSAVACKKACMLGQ
Description: Glucokinase activation assay (PK/LDH-coupled, NADH depletion at 340 nm). In kind it is biochemical. To be noted: 5 mM glucose, single value or range where N>1; for pEC50: 2.5 mM ATP, pH 7.1, room temperature, read-out: EC50; for Emax: % max activation = (Va/Vo−1)×100 from fit, pH 7.1, read-out: Maximum Activation (%). How it is done: Full-length glucokinase (beta cell isoform) was His-tagged at N-terminus and purified by a Ni column followed by size exclusion chromatography. A 320 mL column was packed in house using Superdex75 (Amersham Pharmacia, Carlsbad, Calif.) preparation grade resin. Glucose was obtained from Calbiochem (San Diego, Calif.) and other reagents were purchased from Sigma-Aldrich (St. Louis, Mo.).
All assays were performed in a Corning 384-well plate using Spectramax PLUS spectrophotometer (Molecular Devices, Sunnyvale, Calif.) at room temperature. The final assay volume was 40 ∥L. The buffer conditions used in this assay were as follows: 50 mM HEPES, 5 mM glucose, 2.5 mM ATP, 3.5 mM MgCl2, 0.7 mM NADH, 2 mM dithiothreitol, 1 unit/mL pyruvate kinase/lactate dehydrogenase (PK/LDH), 0.2 mM phosphoenolpyruvate, and 25 mM KCl. The buffer pH was 7.1. The test compound in dimethylsulfoxide solution was added to the buffer and mixed by a plate shaker for 7.5 minutes. The final concentration of dimethylsulfoxide introduced into the assay was 0.25%.
Glucokinase was added to the buffer mixture to initiate the reaction in the presence and absence of compound. The reaction was monitored by absorbance at 340 nm due to the depletion of NADH. The initial reaction velocity was measured by the slope of a linear time course of 0-300 seconds. The percentage of maximum activation was calculated by the following equation: % Maximum Activation=(Va/Vo−1)×100; wherein each of Va and Vo is defined as the initial reaction velocity in the presence and absence of the tested compound, respectively.
The glucokinase activities were measured as a function of compound concentrations.

On to `Cc1ccc(NC(=O)[C@H](CC2CCCO2)n2cnc(C(F)(F)F)c2)nc1` (mixture of isomers) [Example 82, (2S)—N-(5-methylpyridin-2-yl)-3-(tetrahydrofuran-2-yl)-2-(4-(trifluoromethyl)-1H-imidazol-1-yl)propanamide], for which the pEC50 is 5.30 and the Emax is 115%.
For `Cc1ccc(NC(=O)[C@H](CC2CCCC2)n2cc(S(=O)(=O)C(C)C)cn2)nc1` [Example 1, (S)-3-cyclopentyl-2-(4-(isopropylsulfonyl)-1H-pyrazol-1-yl)-N-(5-methylpyridin-2-yl)propanamide] the same measures were 6.22 to 6.52 and 38 to 50%.
For `CC(C)S(=O)(=O)c1cnn([C@@H](CC2CCCC2)C(=O)Nc2cnccn2)c1` [Example 2, (S)-3-cyclopentyl-2-(4-(isopropylsulfonyl)-1H-pyrazol-1-yl)-N-(pyrazin-2-yl)propanamide], the pEC50 is 4.78 to 5.05 and the Emax lay within 84 to 90%.
Turning to `CC(C)S(=O)(=O)c1cnn([C@@H](CC2CCCC2)C(=O)Nc2ccc(C(F)(F)F)cn2)c1` [Example 3, (S)-3-cyclopentyl-2-(4-(isopropylsulfonyl)-1H-pyrazol-1-yl)-N-(5-(trifluoromethyl)pyridin-2-yl)propanamide], the pEC50 was 5.72 to 6.15 and the Emax was 15 to 23%.
`CC(C)S(=O)(=O)c1cnn([C@@H](CC2CCCC2)C(=O)Nc2ccncn2)c1` [Example 4, (S)-3-cyclopentyl-2-(4-(isopropylsulfonyl)-1H-pyrazol-1-yl)-N-(pyrimidin-4-yl)propanamide]: the pEC50 was 5.66 to 6.05 and the Emax was in the range of 57 to 90%.
Turning to `CC(C)S(=O)(=O)c1cnn([C@@H](CC2CCCC2)C(=O)Nc2ncccn2)c1` [Example 5, (S)-3-cyclopentyl-2-(4-(isopropylsulfonyl)-1H-pyrazol-1-yl)-N-(pyrimidin-2-yl)propanamide], the pEC50 is below 4.00.
Regarding `Cc1cnc(NC(=O)[C@H](CC2CCCC2)n2cc(S(=O)(=O)C(C)C)cn2)cn1` [Example 6, (S)-3-cyclopentyl-2-(4-(isopropylsulfonyl)-1H-pyrazol-1-yl)-N-(5-methylpyrazin-2-yl)propanamide], the negative logarithm of the EC50 (pEC50) is 5.25 to 5.32 and the Emax lay in the range of 70 to 76%.
In the case of `CC(C)S(=O)(=O)c1cnn([C@@H](CC2CCCC2)C(=O)Nc2ccn(C)n2)c1` [Example 7, (S)-3-cyclopentyl-2-(4-(isopropylsulfonyl)-1H-pyrazol-1-yl)-N-(1-methyl-1H-pyrazol-3-yl)propanamide], the pEC50 is 5.22 to 5.46 and the Emax was 39 to 40%.
For `Cc1ccc(NC(=O)[C@H](CC2CCCC2)n2cc(S(C)(=O)=O)cn2)nc1` [Example 8, (S)-3-cyclopentyl-N-(5-methylpyridin-2-yl)-2-(4-(methylsulfonyl)-1H-pyrazol-1-yl)propanamide], the pEC50 is 5.42 and the Emax worked out at 100%.
For `Cn1ccc(NC(=O)[C@H](CC2CCCC2)n2cc(S(C)(=O)=O)cn2)n1` [Example 9, (S)-3-cyclopentyl-N-(1-methyl-1H-pyrazol-3-yl)-2-(4-(methylsulfonyl)-1H-pyrazol-1-yl)propanamide], the pEC50 is 4.26 and the Emax came to 174%.
Turning to `CS(=O)(=O)c1cnn([C@@H](CC2CCCC2)C(=O)Nc2ccc(C(F)(F)F)cn2)c1` [Example 10, (S)-3-cyclopentyl-2-(4-(methylsulfonyl)-1H-pyrazol-1-yl)-N-(5-(trifluoromethyl)pyridin-2-yl)propanamide], the pEC50 was 5.32 and the Emax amounted to 56%.
Consider `CCn1ccc(NC(=O)[C@H](CC2CCCC2)n2cc(S(C)(=O)=O)cn2)n1` [Example 11, (S)-3-cyclopentyl-N-(1-ethyl-1H-pyrazol-3-yl)-2-(4-(methylsulfonyl)-1H-pyrazol-1-yl)propanamide], for which the pEC50 is 4.49 and the Emax was determined as 110%.
On to `CS(=O)(=O)c1cnn([C@@H](CC2CCCC2)C(=O)Nc2ccn(Cc3ccccc3)n2)c1` [Example 12, (S)—N-(1-benzyl-1H-pyrazol-3-yl)-3-cyclopentyl-2-(4-(methylsulfonyl)-1H-pyrazol-1-yl)propanamide], for which the pEC50 is below 4.00.
For the molecule `CS(=O)(=O)c1cnn([C@@H](CC2CCCC2)C(=O)Nc2ccncn2)c1` [Example 13, (S)-3-cyclopentyl-2-(4-(methylsulfonyl)-1H-pyrazol-1-yl)-N-(pyrimidin-4-yl)propanamide], the pEC50 is 4.49 and the Emax was 100%.
For `Cc1cnc(NC(=O)[C@H](CC2CCCC2)n2cc(S(C)(=O)=O)cn2)cn1` [Example 14, (S)-3-cyclopentyl-N-(5-methylpyrazin-2-yl)-2-(4-(methylsulfonyl)-1H-pyrazol-1-yl)propanamide], the pEC50 is 4.96 and the Emax is 122%.
Turning to `CC(C)S(=O)(=O)c1cnn([C@@H](CC2CCCC2)C(=O)Nc2ccon2)c1` [Example 15, (S)-3-cyclopentyl-2-(4-(isopropylsulfonyl)-1H-pyrazol-1-yl)-N-(isoxazol-3-yl)propanamide], the pEC50 is 4.22 and the Emax came to 89%.
With `CC(C)S(=O)(=O)c1cnn([C@@H](CC2CCCC2)C(=O)Nc2ccccn2)c1` [Example 16, (S)-3-cyclopentyl-2-(4-(isopropylsulfonyl)-1H-pyrazol-1-yl)-N-(pyridin-2-yl)propanamide], the pEC50 is 5.72 and the Emax came out at 48%.
As for `CC(C)S(=O)(=O)c1cnn([C@@H](CC2CCCC2)C(=O)Nc2ccc3ccccc3n2)c1` [Example 17, (S)-3-cyclopentyl-2-(4-(isopropylsulfonyl)-1H-pyrazol-1-yl)-N-(quinolin-2-yl)propanamide], the pEC50 is 5.09 and the Emax amounted to 23%.
For `CCn1ccc(NC(=O)[C@H](CC2CCCC2)n2cc(S(=O)(=O)C(C)C)cn2)n1` [Example 18, (S)-3-cyclopentyl-N-(1-ethyl-1H-pyrazol-3-yl)-2-(4-(isopropylsulfonyl)-1H-pyrazol-1-yl)propanamide], the pEC50 was 4.80 and the Emax was determined as 24%.
For `CC(C)S(=O)(=O)c1cnn([C@@H](CC2CCCC2)C(=O)Nc2ccn(Cc3ccccc3)n2)c1` [Example 19, (S)—N-(1-benzyl-1H-pyrazol-3-yl)-3-cyclopentyl-2-(4-(isopropylsulfonyl)-1H-pyrazol-1-yl)propanamide] the same measures were 5.77 to 5.89 and 33 to 39%.
Turning to `CCS(=O)(=O)c1cnn([C@@H](CC2CCCC2)C(=O)Nc2ccn(C)n2)c1` [Example 20, (S)-3-cyclopentyl-2-(4-(ethylsulfonyl)-1H-pyrazol-1-yl)-N-(1-methyl-1H-pyrazol-3-yl)propanamide], the pEC50 was 5.14 and the Emax is 80%.
The like results for `CCS(=O)(=O)c1cnn([C@@H](CC2CCCC2)C(=O)Nc2ccc(C)cn2)c1` [Example 21, (S)-3-cyclopentyl-2-(4-(ethylsulfonyl)-1H-pyrazol-1-yl)-N-(5-methylpyridin-2-yl)propanamide] were, in that order, 5.54 and 65%.
Turning to `CCS(=O)(=O)c1cnn([C@@H](CC2CCCC2)C(=O)Nc2cnc(C)cn2)c1` [Example 22, (S)-3-cyclopentyl-2-(4-(ethylsulfonyl)-1H-pyrazol-1-yl)-N-(5-methylpyrazin-2-yl)propanamide], the pEC50 is 4.60 and the Emax turned out to be 144%.
Take `CS(=O)(=O)c1cnn([C@@H](CC2CCCC2)C(=O)Nc2ccc(C(=O)O)cn2)c1` [Example 24, (S)-6-(3-cyclopentyl-2-(4-(methylsulfonyl)-1H-pyrazol-1-yl)propanamido)nicotinic acid]: the pEC50 is 5.15 and the Emax worked out at 145%.
With `Cc1ccc(NC(=O)[C@H](CC2CCCC2)n2cnc(S(C)(=O)=O)n2)nc1` [Example 25, (S)-3-cyclopentyl-N-(5-methylpyridin-2-yl)-2-(3-(methylsulfonyl)-1H-1,2,4-triazol-1-yl)propanamide], the pEC50 was 5.41 and the Emax turned out to be 116%.
